This experiment deals with Geobacillus stearothermophilus spores. It is filed as cell-based. The protocol:
Geobacillus stearothermophilus spores are resuspended in potassium ferricyanide concentrations ranging from 0.5 μg/ml to 200 mg/ml in samples having a spore concentration of 1E8 per ml (1×10^8 spores per milliliter). SCBI vials are inoculated with 20 μl (≈2 million spores) of each of the sample suspensions and air dried at least overnight. The SCBIs are then capped and run in a VHP BIER vessel for the times shown in Table 1 below using a 0.8 g injection of 59% hydrogen peroxide.
Geobacillus stearothermophilus spores are resuspended in Prussian blue concentrations ranging from 0.5 μg/ml to 123 mg/ml at a spore concentration of 1E8 per ml. SCBI vials are inoculated with 20 μl (≈2 million spores) of the appropriate suspension and air dried at least overnight. The SCBIs are then capped and run in a VHF) BIER vessel for the times listed below using a 0.8 g injection of 59% hydrogen peroxide.

Values joined by “and” are separate entries in the source; they are usually repeats but may differ in a detail not shown here. Equal entries are not always repeated.

The text below walks through data of US8822174B1, “Sterilization indicator for oxidative sterilants” (priority 2013, dated 2014).

With `[C-]#N.[C-]#N.[C-]#N.[C-]#N.[C-]#N.[C-]#N.[C-]#N.[C-]#N.[C-]#N.[C-]#N.[C-]#N.[C-]#N.[C-]#N.[C-]#N.[C-]#N.[C-]#N.[C-]#N.[C-]#N.[Fe+2].[Fe+2].[Fe+2].[Fe+3].[Fe+3].[Fe+3].[Fe+3]` [Prussian Blue, Prussian blue], the “Killed/Total Samples” value was 0/10 and 8/10 and 3/10 and 7/10* and 1/10* and 6/10* and 2/10* and 10/10; the “grow out results compared with potassium ferricyanide (Table 1)” value is given as “comparable results”.
